Patent US20070037788A1, “Tricyclic steroid hormone nuclear receptor modulators” (Eli Lilly and Company, priority 2003, published 2007)
Counter-ions that a name gives are not always drawn.

Biological target: T1, human GR (glucocorticoid receptor) (Homo sapiens, UniProt P04150)
T1 construct: expressed in transfected cells; host or cells: 293 cells
T1 sequence (P04150 1-777): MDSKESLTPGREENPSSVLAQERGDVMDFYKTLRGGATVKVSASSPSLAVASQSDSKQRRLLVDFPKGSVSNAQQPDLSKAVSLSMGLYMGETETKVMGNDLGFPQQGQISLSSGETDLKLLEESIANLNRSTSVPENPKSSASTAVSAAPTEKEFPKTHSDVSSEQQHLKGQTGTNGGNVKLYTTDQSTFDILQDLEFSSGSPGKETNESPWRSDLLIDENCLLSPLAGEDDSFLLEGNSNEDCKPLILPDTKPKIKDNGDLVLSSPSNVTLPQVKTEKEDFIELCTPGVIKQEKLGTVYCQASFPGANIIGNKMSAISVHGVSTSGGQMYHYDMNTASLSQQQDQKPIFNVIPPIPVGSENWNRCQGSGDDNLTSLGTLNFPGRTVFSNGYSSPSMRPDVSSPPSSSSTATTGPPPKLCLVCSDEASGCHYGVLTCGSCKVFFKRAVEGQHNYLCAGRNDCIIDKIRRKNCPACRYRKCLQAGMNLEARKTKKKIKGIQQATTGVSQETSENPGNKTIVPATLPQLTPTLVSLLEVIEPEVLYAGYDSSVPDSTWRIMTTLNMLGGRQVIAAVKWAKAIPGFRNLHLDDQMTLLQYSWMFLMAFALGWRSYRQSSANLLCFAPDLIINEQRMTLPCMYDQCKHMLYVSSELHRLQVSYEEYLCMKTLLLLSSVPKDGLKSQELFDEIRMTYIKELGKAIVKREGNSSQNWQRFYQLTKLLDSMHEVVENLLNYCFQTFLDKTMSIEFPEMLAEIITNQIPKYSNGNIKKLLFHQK
Assay: Alternative Binding Assay Protocol (Method 2), GR
Conditions: 293-GR lysate, 3H-dexamethasone
Experimental: Cell lysates from 293 cells overexpressing human GR (glucocorticoid receptor), AR (androgen receptor), MR (mineralocorticoid receptor) or PR (progesterone receptor) are used for competition binding assays to determine Ki values for test compounds. Briefly, competition binding assays are run in a buffer containing 20 mM Hepes, pH 7.6, 0.2 mM EDTA, 75 mM NaCl, 1.5 mM MgCl2, 20% glycerol, 20 mM sodium molybdate, 0.2 mM DTT, 20 ug/ml aprotinin and 20 ug/ml leupeptin, using either 0.3 nM ^3H-dexamethasone for GR binding, 0.36 nM ^3H-methyltrienolone for AR binding, 0.25 nM ^3H-aldosterone for MR binding, or 0.29 nM ^3H-methyltrienolone for PR binding, and either 20 ug 293-GR lysate, 22 ug 293-AR lysate, 20 ug 293-MR lysate or 40 ug 293-PR lysate per well. Competing compounds are added at various concentrations in half-log increments. Non-specific binding is determined in the presence of 500 nM dexamethasone for GR binding, 500 nM aldosterone for MR binding, or 500 nM methyltrienolone for AR and PR binding. The binding reaction (140 μl) is incubated for overnight at 4° C., then 70 μl of cold charcoal-dextran buffer (containing per 50 ml of assay buffer, 0.75 g of charcoal and 0.25 g of dextran) is added to each reaction. Plates are mixed 8 minutes on an orbital shaker at 4° C. Plates are then centrifuged at 3,000 rpm at 4° C. for 10 minutes. An aliquot of 120 μl of the mix is transferred to another 96-well plate and 175 μl of Wallac Optiphase “Hisafe 3” scintillation fluid is added to each well. Plates are sealed and shaken vigorously on an orbital shaker. After an incubation of 2 hrs, plates are read in a Wallac Microbeta counter. The data is used to calculate an IC50 and % Inhibition at 10 μM. The Kd for ^3H-dexamethasone for GR binding, ^3H-methyltrienolone for AR binding, ^3H-aldosterone for MR binding, or ^3H-methyltrienolone for PR binding, is determined by saturation binding. The IC50 values for compounds are converted to Ki using Cheng-Prusoff equation and the Kd determined by saturation binding assay.

CC(C)(CN1CCOCC1)n1c(=O)[nH]c2cc(/C=C3\c4ccccc4COc4cc(F)ccc43)ccc21 [Example 1, 1-(1,1-Dimethyl-2-morpholin-4-yl-ethyl)-5-(3-fluoro-6H-dibenzo[b,e]oxepin-11-ylidenemethyl)-1,3-dihydro-benzoimidazol-2-one, E isomer]
Ki: < 1000 nM

CN1CCC(n2c(=O)[nH]c3cc(/C=C4/c5ccc(F)cc5OCc5c(F)cccc54)ccc32)CC1 [Example 2, 5-(3,7-Difluoro-6H-dibenzo[b,e]oxepine-11-ylidenemethyl)-1-(1-methyl-piperidin-4-yl)-1,3-dihydro-benzoimidazol-2-one, E-isomer]
Ki: < 1000 nM

CN1CCC(n2c(=O)[nH]c3cc(/C=C4\c5ccccc5COc5cc(F)ccc54)ccc32)CC1 [Example 3, 5-(3-Fluoro-6H-dibenzo[b,e]oxepin-11-ylidenemethyl)-1-(1-methyl-piperidin-4-yl)-1,3-dihydro-benzoimidazol-2-one, E isomer]
Ki: < 500 nM

CN1CCC(n2c(=O)[nH]c3cc(/C=C4\c5ccc(F)cc5COc5cc(F)ccc54)ccc32)CC1 [Example 4, 5-(3,8-Difluoro-6H-dibenzo[b,e]oxepin-11-ylidenemethyl)-1-(1-methyl-piperidin-4-yl) -1,3-dihydro-benzoimidazol-2-one, E isomer]
Ki: < 1000 nM

CCN1CC[C@@H](n2c(=O)[nH]c3cc(/C=C4\c5ccc(F)cc5COc5cc(F)ccc54)ccc32)C1 [Example 5, 5-(3,8-Difluoro-6H-dibenzo[b,e]oxepin-11-ylidenemethyl)-1-(1-ethyl-pyrrolidin-3-yl) -1,3-dihydro-benzoimidazol-2-one, HOAc salt, E isomer, chiral]
Ki: < 500 nM

CN1CCN(CCCn2c(=O)[nH]c3cc(/C=C4\c5ccccc5COc5cc(F)ccc54)ccc32)CC1 [Example 7]
Ki: < 500 nM

CN1CCN(CCn2c(=O)[nH]c3cc(/C=C4\c5ccccc5COc5cc(F)ccc54)ccc32)CC1 [Example 8]
Ki: < 500 nM

O=c1[nH]c2cc(/C=C3\c4ccccc4COc4cc(F)ccc43)ccc2n1[C@H]1CCNC1 [Example 9]
Ki: < 500 nM

C[C@H](CN1CCOCC1)n1c(=O)[nH]c2cc(/C=C3\c4ccccc4COc4cc(F)ccc43)ccc21 [Example 10]
Ki: < 500 nM

C[C@@H](CN1CCOCC1)n1c(=O)[nH]c2cc(/C=C3\c4ccccc4COc4cc(F)ccc43)ccc21 [Example 11]
Ki: < 500 nM

O=c1[nH]c2cc(/C=C3\c4ccccc4COc4cc(F)ccc43)ccc2n1C1CCNCC1 [Example 12]
Ki: < 1000 nM

C[C@@H]1CN(CCn2c(=O)[nH]c3cc(/C=C4\c5ccccc5COc5cc(F)ccc54)ccc32)C[C@H](C)O1 [Example 13]
Ki: < 500 nM

O=c1[nH]c2cc(/C=C3\c4ccccc4COc4cc(F)ccc43)ccc2n1CCN1CCNCC1 [Example 14]
Ki: < 500 nM

O=c1[nH]c2cc(/C=C3\c4ccccc4COc4cc(F)ccc43)ccc2n1C1CCNC1 (centres unmarked) [Example 15]
Ki: < 500 nM

O=c1[nH]c2cc(/C=C3\c4ccccc4COc4cc(F)ccc43)ccc2n1C1CCNC1 (centres unmarked) [Example 16]
Ki: < 500 nM

O=c1[nH]c2cc(/C=C3\c4ccccc4COc4cc(F)ccc43)ccc2n1C1CNC1 [Example 17]
Ki: < 500 nM

O=c1[nH]c2cc(/C=C3\c4ccccc4COc4cc(F)ccc43)ccc2n1C[C@@H]1CCCN1 [Example 18]
Ki: < 1000 nM

O=c1[nH]c2cc(/C=C3\c4ccccc4COc4cc(F)ccc43)ccc2n1C[C@H]1CCCN1 [Example 19]
Ki: < 1000 nM

CN1CCN(CCn2c(=O)[nH]c3cc(/C=C4\c5ccc(F)cc5COc5cc(F)ccc54)ccc32)CC1 [Example 20]
Ki: < 500 nM

O=c1[nH]c2cc(/C=C3\c4ccc(F)cc4COc4cc(F)ccc43)ccc2n1CCN1CCCC1 [Example 21]
Ki: < 500 nM

C[C@H](CN1CCOCC1)n1c(=O)[nH]c2cc(/C=C3\c4ccc(F)cc4COc4cc(F)ccc43)ccc21 [Example 22]
Ki: < 500 nM

C[C@@H](CN1CCOCC1)n1c(=O)[nH]c2cc(/C=C3\c4ccc(F)cc4COc4cc(F)ccc43)ccc21 [Example 23]
Ki: < 1000 nM

CC(C)(CN1CCOCC1)n1c(=O)[nH]c2cc(/C=C3\c4ccc(F)cc4COc4cc(F)ccc43)ccc21 [Example 24]
Ki: < 1000 nM

C[C@@H]1CN(CCn2c(=O)[nH]c3cc(/C=C4\c5ccc(F)cc5COc5cc(F)ccc54)ccc32)C[C@H](C)O1 [Example 25]
Ki: < 500 nM

O=c1[nH]c2cc(/C=C3\c4ccc(F)cc4COc4cc(F)ccc43)ccc2n1CCCN1CCOCC1 [Example 26]
Ki: < 500 nM

O=c1[nH]c2cc(/C=C3\c4ccc(F)cc4COc4cc(F)ccc43)ccc2n1C1CCNCC1 [Example 28]
Ki: < 500 nM

O=c1[nH]c2cc(/C=C3\c4ccc(F)cc4COc4cc(F)ccc43)ccc2n1[C@H]1CCNC1 [Example 29]
Ki: < 500 nM

O=c1[nH]c2cc(/C=C3\c4ccc(F)cc4COc4cc(F)ccc43)ccc2n1C1CNC1 [Example 30]
Ki: < 500 nM

O=c1[nH]c2cc(/C=C3\c4ccc(F)cc4COc4cc(F)ccc43)ccc2n1[C@@H]1CCNC1 [Example 31]
Ki: < 500 nM

CN1CC[C@H](n2c(=O)[nH]c3cc(/C=C4\c5ccc(F)cc5COc5cc(F)ccc54)ccc32)C1 [Example 32]
Ki: < 500 nM

CCN1CC[C@H](n2c(=O)[nH]c3cc(/C=C4\c5ccc(F)cc5COc5cc(F)ccc54)ccc32)C1 [Example 33]
Ki: < 500 nM

CN1CCN(CCn2c(=O)[nH]c3cc(/C=C4/c5ccc(F)cc5OCc5c(F)cccc54)ccc32)CC1 [Example 34]
Ki: < 500 nM

O=c1[nH]c2cc(/C=C3/c4ccc(F)cc4OCc4c(F)cccc43)ccc2n1CCN1CCCC1 [Example 35]
Ki: < 1000 nM

O=c1[nH]c2cc(/C=C3/c4ccc(F)cc4OCc4c(F)cccc43)ccc2n1C1CCNCC1 [Example 36]
Ki: < 500 nM

O=c1[nH]c2cc(/C=C3/c4ccc(F)cc4OCc4c(F)cccc43)ccc2n1[C@H]1CCNC1 [Example 37]
Ki: < 500 nM

C[C@H](CN1CCOCC1)n1c(=O)[nH]c2cc(/C=C3/c4ccc(F)cc4OCc4c(F)cccc43)ccc21 [Example 38]
Ki: < 500 nM

C[C@@H](CN1CCOCC1)n1c(=O)[nH]c2cc(/C=C3/c4ccc(F)cc4OCc4c(F)cccc43)ccc21 [Example 39]
Ki: < 1000 nM

CC(C)(CN1CCOCC1)n1c(=O)[nH]c2cc(/C=C3/c4ccc(F)cc4OCc4c(F)cccc43)ccc21 [Example 40]
Ki: < 1000 nM

C[C@@H]1CN(CCn2c(=O)[nH]c3cc(/C=C4/c5ccc(F)cc5OCc5c(F)cccc54)ccc32)C[C@H](C)O1 [Example 41]
Ki: < 500 nM

O=c1[nH]c2cc(/C=C3/c4ccc(F)cc4OCc4c(F)cccc43)ccc2n1CCCN1CCOCC1 [Example 42]
Ki: < 500 nM

O=c1[nH]c2cc(/C=C3/c4ccc(F)cc4OCc4c(F)cccc43)ccc2n1CCN1CCNCC1 [Example 43]
Ki: < 500 nM

CCN1CC[C@H](n2c(=O)[nH]c3cc(/C=C4/c5ccc(F)cc5OCc5c(F)cccc54)ccc32)C1 [Example 44]
Ki: < 1000 nM

CN1CC[C@H](n2c(=O)[nH]c3cc(/C=C4/c5ccc(F)cc5OCc5c(F)cccc54)ccc32)C1 [Example 45]
Ki: < 10000 nM

CCN1CC[C@@H](n2c(=O)[nH]c3cc(/C=C4/c5ccc(F)cc5OCc5c(F)cccc54)ccc32)C1 [Example 46]
Ki: < 1000 nM
